US10774053B2, “HIV protease inhibitors” (Gilead Sciences, Inc., priority 2017, dated 2020)
Like-named read-outs stand apart in the source and are kept apart here.

System: HIV-1 (IIIB) in MT-4 cells
Assay: microbe, parasite or virus in culture
Format: cell-based
Conditions: HIV-1, read-out: MT4 EC50
[1] = Human immunodeficiency virus 1, IIIB, MT4, MT-4 cells

| Compound | EC50 [1] [µM] | EC50 (MT-4 cells) [µM] |
| --- | --- | --- |
| CC(C)(C)C[C@]1(c2ccc(-c3cnn(C4CC4)c3)cc2F)NC(=N)N([C@H](COC(=O)NC2(C(F)(F)F)CC2)c2ccc(Cl)c(-n3ncnc3C(F)F)c2)C1=O [Compound 209] | 0.0147 |  |
| Cn1ccc(-c2ccc([C@@]3(CC(C)(C)C)NC(=N)N([C@H](COC(=O)NC4(C(F)(F)F)CC4)c4ccc(Cl)c(-n5ncnc5C(F)F)c4)C3=O)c(F)c2)n1 [Compound 210] | 0.00694 |  |
| CC(C)(C)C[C@]1(c2ccc(-c3cnn(C(F)F)c3)cc2)NC(=N)N([C@H](COC(=O)NC2CC2(F)F)c2ccc(Cl)c(-n3ncnc3C(F)F)c2)C1=O (some centres unmarked) [Compound 211] | 0.0108 |  |
| CC(C)(C)C[C@]1(c2ccc(-c3ccnn3C(F)F)cc2)NC(=N)N([C@H](COC(=O)NC2(C(F)(F)F)CC2)c2ccc(Cl)c(-n3ncnc3C(F)F)c2)C1=O [Compound 213] |  | 0.0255 |
| CC(C)(C)C[C@]1(c2ccc(-c3ccn(C4CC4)n3)cc2F)NC(=N)N([C@H](COC(=O)NC2(C(F)(F)F)CC2)c2ccc(Cl)c(-n3ncnc3C(F)F)c2)C1=O [Compound 215] | 0.0185 |  |
| Cc1cc(-c2ccc([C@@]3(CC(C)(C)C)NC(=N)N([C@H](COC(=O)NC4(C(F)(F)F)CC4)c4ccc(Cl)c(-n5ncnc5C(F)F)c4)C3=O)cc2)on1 [Compound 216] | 0.00974 |  |
| CC(C)(C)C[C@]1(c2ccc(-c3cnn(C(F)F)c3)cc2)NC(=N)N([C@H](COC(=O)NCC(F)F)c2ccc(Cl)c(-n3ncnc3C(F)F)c2)C1=O [Compound 219] | 0.0088 |  |
| CC(C)(C)C[C@]1(c2ccc(-c3cnn(C4CC4)c3)cc2)NC(=N)N([C@H](COC(=O)NCC(F)(F)F)c2ccc(Cl)c(-n3ncnc3C(F)F)c2)C1=O [Compound 221] | 0.0155 |  |
| CC(C)(C)C[C@]1(c2ccc(-c3cnn(C4CC4)n3)c(F)c2)NC(=N)N([C@H](COC(=O)NC2(C(F)(F)F)CC2)c2ccc(Cl)c(-n3ncnc3C(F)F)c2)C1=O [Compound 225] | 0.0174 |  |
| CC(C)(C)C[C@]1(c2ccc(-n3nccn3)cc2)NC(=N)N([C@H](COC(=O)NC2(C(F)(F)F)CC2)c2ccc(Cl)c(-n3ncnc3C(F)F)c2)C1=O [Compound 226] | 0.0106 |  |
| CC(C)(C)C[C@]1(c2ccc(-c3cnn(C4CC4)n3)c(F)c2F)NC(=N)N([C@H](COC(=O)NC2(C(F)(F)F)CC2)c2ccc(Cl)c(-n3ncnc3C(F)F)c2)C1=O [Compound 227] | 0.0254 |  |
| COc1ccc([C@@]2(CC(C)(C)C)NC(=N)N([C@H](COC(=O)NC3(C(F)(F)F)CC3)c3ccc(Cl)c(-n4ncnc4C(F)F)c3)C2=O)c(F)c1F [Compound 228] | 0.0143 |  |
| CC(C)(C)C[C@]1(c2ccc(-n3cncn3)cc2)NC(=N)N([C@H](COC(=O)NC2(C(F)(F)F)CC2)c2ccc(Cl)c(-n3ncnc3C(F)F)c2)C1=O [Compound 229] | 0.0276 |  |
| C[C@H](NC(=O)OC[C@H](c1ccc(Cl)c(-n2ncnc2C(F)F)c1)N1C(=N)N[C@](CC(C)(C)C)(c2ccc(-c3cnn(C4CC4)n3)cc2)C1=O)C(F)(F)F [Compound 230] | 0.00762 |  |
| CC(C)(C[C@]1(c2ccc(-c3cnn(C(F)F)c3)cc2)NC(=N)N([C@H](COC(=O)NC2(C(F)(F)F)CC2)c2ccc(Cl)c(-n3ncnc3C(F)F)c2)C1=O)C1CC1 [Compound 231] | 0.0122 |  |
| CC(C)(C)C[C@]1(c2ccc(-c3cn(C4CC4)nn3)cc2)NC(=N)N([C@H](COC(=O)NC2(C(F)(F)F)CC2)c2ccc(Cl)c(-n3ncnc3C(F)F)c2)C1=O [Compound 232] |  | 0.0182 |
| C[C@H](NC(=O)OC[C@H](c1ccc(Cl)c(-n2ncnc2C(F)F)c1)N1C(=N)N[C@](CC(C)(C)C)(c2ccc(-c3cn(C4CC4)nn3)cc2)C1=O)C(F)(F)F [Compound 233] | 0.0136 |  |
| C[C@H](NC(=O)OC[C@H](c1ccc(Cl)c(-n2ncnc2C(F)F)c1)N1C(=N)N[C@](CC(C)(C)C)(c2ccc(-c3cnn(C4CC4)c3)cc2)C1=O)C(F)(F)F [Compound 234] | 0.00928 |  |
| CC(C)(C)C[C@]1(c2ccc(-c3cnn(C(F)F)c3)cc2)NC(=N)N([C@H](COC(=O)NC2CC2)c2ccc(Cl)c(-n3cncn3)c2)C1=O [Compound 235] | 0.00961 |  |
| CC(C)(C)C[C@]1(c2ccc(-c3cnn(C(F)F)c3)cc2)NC(=N)N([C@H](COC(=O)NC2(C)CC2)c2ccc(Cl)c(-n3cncn3)c2)C1=O [Compound 237] | 0.00879 |  |
| Cc1ncn(-c2cc([C@@H](COC(=O)NC3(C)CC3)N3C(=N)N[C@](CC(C)(C)C)(c4ccc(-c5cnn(C(F)F)c5)cc4)C3=O)ccc2Cl)n1 [Compound 238] | 0.156 |  |
| CC(C)(C)C[C@]1(c2ccc(-c3cnn(C(F)F)c3)cc2)NC(=N)N([C@H](COC(=O)NC2(C)CC2)c2ccc(Cl)c(-n3cnc(C4CC4)n3)c2)C1=O [Compound 239] | 0.604 |  |
| CC(C)(C)C[C@]1(c2ccc(-c3cnn(C(F)F)c3)cc2)NC(=N)N([C@H](COC(=O)N2CC(F)(F)C2)c2ccc(Cl)c(-n3cncn3)c2)C1=O [Compound 240] | 0.00506 |  |
| CC(C)(C)C[C@]1(c2ccc(-c3cnn(C(F)F)c3)cc2)NC(=N)N([C@H](COC(=O)NC(C)(C)C)c2ccc(Cl)c(-n3cncn3)c2)C1=O [Compound 241] | 0.00836 |  |
| CC(C)(C)C[C@]1(c2ccc(-c3cnn(C4CC4)c3)cc2)NC(=N)N([C@H](COC(=O)NC2CC2)c2ccc(Cl)c(-n3cncn3)c2)C1=O [Compound 243] | 0.00911 |  |

| Compound | EC50 [1] [µM] | EC50 (MT-4 cells) [µM] |
| --- | --- | --- |
| CC(C)(C)C[C@]1(c2ccc(-c3ncccn3)cc2)NC(=N)N([C@H](CO)c2ccc(Cl)c(-n3cncn3)c2)C1=O [Compound 245] | 0.239 |  |
| CC(C)(C)C[C@]1(c2ccc(-c3cnn(C(F)F)c3)cc2)NC(=N)N([C@H](CO)c2ccc(Cl)c(-n3cncn3)c2)C1=O [Compound 246] | 0.0843 |  |
| Cc1ncnn1-c1cc([C@@H](COC(=O)NC2(C)CC2)N2C(=N)N[C@](CC(C)(C)C)(c3ccc(-c4cnn(C(F)F)c4)cc3)C2=O)ccc1Cl [Compound 247] | 0.00751 |  |
| CC(C)(C)C[C@]1(c2ccc(-c3cnn(C(F)F)c3)cc2)NC(=N)N([C@H](COC(=O)NC23CC(C(F)(F)F)(C2)C3)c2ccc(Cl)c(-n3cncn3)c2)C1=O [Compound 248] | 0.0703 |  |
| CC(C)(C)C[C@]1(c2ccc(-c3cccc(=O)[nH]3)cc2)NC(=N)N([C@H](COC(=O)NC2(C(F)(F)F)CC2)c2ccc(Cl)c(-n3cncn3)c2)C1=O [Compound 249] | 0.325 |  |
| CC(C)C[C@]1(c2ccc(-c3cnn(C(F)F)c3)cc2)NC(=N)N([C@H](COC(=O)NC2(C(F)(F)F)CC2)c2ccc(Cl)c(-n3cncn3)c2)C1=O [Compound 250] | 0.0298 |  |
| CC(C)(C)C[C@]1(c2ccc(-c3cnn(C(F)F)c3)cc2)NC(=N)N([C@H](COC(=O)NC2(C)CC2)c2ccc(OC(F)(F)F)c(-n3cncn3)c2)C1=O [Compound 251] | 0.0857 |  |
| CC(C)(C)C[C@]1(c2ccc(-c3cnn(C(F)F)c3)cc2)NC(=N)N([C@H](COC(=O)NC2(C)CC2)c2ccc(Cl)c(-n3ncnc3C3CC3)c2)C1=O [Compound 252] | 0.0207 |  |
| CC(C)(C)C[C@]1(c2ccc(-c3cnn(C(F)F)c3)cc2)NC(=N)N([C@H](COC(=O)NC2(C(F)(F)F)CC2)c2ccc(Cl)c(-n3ncnc3C3CC3)c2)C1=O [Compound 253] | 0.0281 |  |
| Cc1ncnn1-c1cc([C@@H](COC(=O)NC2(C(F)F)CC2)N2C(=N)N[C@](CC(C)(C)C)(c3ccc(-c4cnn(C(F)F)c4)cc3)C2=O)ccc1Cl [Compound 254] | 0.018 |  |
| CC(C)(C)C[C@]1(c2ccc(-c3cnn(C(F)F)c3)cc2)NC(=N)N([C@H](COC(=O)NC2(C(F)(F)F)CC2)c2ccc(Cl)c(-n3cccn3)c2)C1=O [Compound 255] | 0.0227 |  |
| CC(C)(C)C[C@]1(c2cc(F)cc(F)c2)NC(=N)N([C@H](COC(=O)NC2(C)CC2)c2ccc(Cl)c(-n3cc(-c4ccccn4)cn3)c2)C1=O [Compound 256] | 0.554 |  |
| CC(C)(C)C[C@]1(c2cc(F)cc(F)c2)NC(=N)N([C@H](COC(=O)NC2(C)CC2)c2ccc(Cl)c(-n3cccn3)c2)C1=O [Compound 257] | 4.18 |  |
| CC(C)(C)C[C@]1(c2ccc(-c3cnn(C(F)F)c3)cc2)NC(=N)N([C@H](COC(=O)NC2(C)CC2)c2ccc(Cl)c(-n3cccn3)c2)C1=O [Compound 258] | 0.0285 |  |
| CCC1(NC(=O)OC[C@H](c2ccc(Cl)c(-n3cccn3)c2)N2C(=N)N[C@](CC(C)(C)C)(c3ccc(-c4cnn(C(F)F)c4)cc3)C2=O)CC1 [Compound 259] | 0.0654 |  |
| CC(C)(C)C[C@]1(c2ccc(-c3cnn(C(F)F)c3)cc2)NC(=N)N([C@H](COC(=O)NC2(C)CC2)c2ccc(Cl)c(-n3ccnn3)c2)C1=O [Compound 260] | 0.0324 |  |
| CC(C)(C)C[C@]1(c2ccc(-c3cnn(C(F)F)c3)cc2)NC(=N)N([C@H](COC(=O)N2CC(F)(F)C2)c2ccc(Cl)c(-n3cccn3)c2)C1=O [Compound 261] | 0.029 |  |
| CC1(NC(=O)OC[C@H](c2ccc(Cl)c(-n3cccn3)c2)N2C(=N)N[C@](CC(C)(C)C(F)(F)F)(c3cc(F)cc(F)c3)C2=O)CC1 [Compound 262] | 1.8 |  |
| CC1(NC(=O)OC[C@H](c2ccc(Cl)c(-n3cccn3)c2)N2C(=N)N[C@](CC(C)(C)C(F)(F)F)(c3ccc(Cl)cc3)C2=O)CC1 [Compound 263] | 0.748 |  |
| CC(C)(C)C[C@]1(c2ccc(-c3cnn(C(F)F)c3)cc2)NC(=N)N([C@H](COC(=O)NC2(C)CC2)c2ccc(Cl)c(-n3cc(C4CC4)cn3)c2)C1=O [Compound 264] | 0.228 |  |
| CC(C)(C)C[C@]1(c2ccc(-c3cnn(C(F)F)c3)cc2)NC(=N)N([C@H](COC(=O)NC2(C)CC2)c2ccc(Cl)c(-n3cc(C#N)cn3)c2)C1=O [Compound 265] | 0.0179 |  |
| CC(C)(C)C[C@]1(c2ccc(-c3cnn(C(F)F)c3)cc2)NC(=N)N([C@H](COC(=O)NC2(C)CC2)c2ccc(Cl)c(-n3cnnn3)c2)C1=O [Compound 266] | 0.0574 |  |
| N=C1N[C@](C#CC2CC2)(c2ccc(-c3cnn(C(F)F)c3)cc2)C(=O)N1[C@H](COC(=O)NC1(C(F)(F)F)CC1)c1ccc(Cl)c(-n2cccn2)c1 [Compound 267] | 0.243 |  |
| CC(C)(C)C[C@]1(c2ccc(-c3cnn(C(F)F)c3)cc2)NC(=N)N([C@H](COC(=O)NC2(C(F)(F)F)CC2)c2ccc(Cl)c(-n3nccn3)c2)C1=O [Compound 268] | 0.0378 |  |
| CC(C)(C)C[C@]1(c2ccc(-c3cnn(C(F)F)c3)cc2)NC(=N)N([C@H](COC(=O)NC2(C)CC2)c2cc(-n3cncn3)c(Cl)cn2)C1=O [Compound 269] | 0.0624 |  |
